Assay results taken from PMC7496275, “Pentathiepins: A Novel Class of Glutathione Peroxidase 1 Inhibitors that Induce Oxidative Stress, Loss of Mitochondrial Membrane Potential and Apoptosis in Human Cancer Cells” (Chemmedchem, 2020).

Experiments:
[1] = Stability in GPx assay buffer with GSH by RP-HPLC; format: physicochemical
Protocol: (§1) It has been reported that pentathiepins are instable in the presence of thiols such as GSH.20 Thus, the stability of a representative pentathiepin, 4, in the presence of GSH was studied first by APCI‐MS. Incubations of 4 in the presence of 10 mM GSH, a biologically relevant concentration, were monitored at 23 °C for a period up to 1 h. […] Next, the stability of 4 was studied by RP‐HPLC in the same buffer and with the same GSH concentration (0.25 mM) used in the GPx assay (see below). Over the course of a 70 min incubation a nearly 30 % loss of the pentathiepin (Figure S32) was observed. However, since the GPx assay is only run for 20 min, the direct reaction between 4 and GSH would only account for a ca. 10 % loss of pentathiepin under assay conditions.
Melting points were determined with a Büchi Melting Point M‐565 or a Büchi 545 (Büchi, Flawil, CH), temperatures are uncorrected. ^1H NMR and ^13C NMR spectra were recorded either with a Bruker Avance II‐300 or an Avance II Ultrashield 400 MHz instrument. Chemical shifts δ are given in ppm and the solvent residual peak (CDCl3: ^1H, δ=7.27; ^13C, δ=77.0 and [D6]DMSO: ^1H, δ=2.50; ^13C, δ=40) was used as an internal standard with the quinoxaline derivatives while TMS was used for the indole derivatives. APCI‐MS (m/z) spectra were recorded on an Advion MS. […]

pBR322 plasmid = assay: Cleavage of supercoiled plasmid DNA; settings: 5 μM, 20 h, 37 °C
Protocol: To assess the potential DNA‐cleaving activity of 4 a plasmid cleavage assay was performed. This method makes use of the different mobilities that plasmids display during electrophoretic separation processes in an agarose gel. An intact supercoiled plasmid has the highest mobility due to its compactness, open circular plasmids (ocDNA), e. g. plasmids with a single strand break, present a lower mobility due to increased friction of this less compact DNA construct. Commercially available DNA plasmids usually present ratios of 95 % supercoiled and 5 % ocDNA. Upon treatment with DNA‐damaging agents this ratio will be shifted towards a higher amount of ocDNA due to single strand breaks, or even linearized DNA in case double strand breaks are induced. […]
Cleavage of supercoiled plasmid DNA: For this assay, 0.3 μg pBR322 plasmid (Thermo Fisher) were incubated with either 0.1 % DMF or 5 μM 4 with or without 2 mM glutathione (GSH) in a 50 mM sodium phosphate buffer at pH 7.5 for 20 h in a 37 °C water bath. Afterwards, the samples were separated on a 1 % agarose (Geneon) gel at 80 V (5 V/cm) for 2 h, stained with GelRed (Biotium) and the image captured and bands quantified using ImageLab (Biorad). The resulting data was analyzed and visualized with Prism 7 (GraphPad).

[2] = test system: SISO human cervix cancer cell line; assay: Crystal violet proliferation assay; format: cell-based; settings: Homo sapiens, 37 °C, 96 h, n>4, read-out: Inhibition of cell viability GI50 (CI 95 %)
Protocol: GI50 values for 50 % growth inhibition were all in a low micro molar range (Table 1). […] The indole−pentathiepins gave lower GI50 values than the pyrrolo[1,2‐a]quinoxaline derivatives. […] There was also a trend showing that an electron rich substituent in position R^2 increased the antiproliferative effect in SISO cells.
Crystal violet proliferation assay: To measure cell growth inhibition, the crystal violet assay was carried out as previously described.37 Adherent cell lines were seeded out in a 96‐well plate (1000 cells per 200 μL culture medium) and allowed to attach for 24 h. Cells were exposed to nine serial dilutions of compound, added to the medium from 1000‐fold concentrated stock solutions in DMF. For the controls, cells were exposed to 0.1 % DMF alone. After addition of compounds, plates for the detection of the starting point of the proliferation at incubation time zero (t 0) were stopped with glutaraldehyde (see below), washed with Dulbecco's buffer (containing KCl 0.2 g/L, MgSO4 ⋅ 7 H2O 0.1 g/L, Na2HPO4 ⋅ >7 H2O 1.55 g/L, KH2HPO4 0.2 g/L and NaCl 8 g/L in water) and stored at 4 °C until the staining procedure. Treated cells were incubated for 96 h in the incubator, the medium was removed and replaced with 100 μL of 1 % glutaraldehyde in Dulbecco's buffer for 20 min. After washing twice with 150 μL of Dulbecco's buffer, the buffer was removed and replaced with 100 μL of a 0.02 % crystal violet solution dissolved in water for 30 min and subsequently washed in tap water for 15 min. Water was removed and replaced with 100 μL of ethanol (70 % in water) followed by shaking on a 96‐well shaker (MS3 digital, IKA‐Werke, Germany) for 2 h. Optical density was measured with a SpectraMax Plus 383 microtiter plate reader at λ=570 nm (Molecular Devices, USA). The optical density of t 0 plates at the time of treatment were subtracted from optical densities of plates with treated cells after 96 h (T), and the growth inhibition relative to untreated, control cells (C) as described.22 Growth inhibition concentrations at 50 % (GI50) were calculated by determining the inflection point of the sigmoidal log dose‐growth inhibition (%T/C) curves with the GraphPad Prism 6.0 software.

[3] = Stability in presence of GSH by APCI-MS; format: physicochemical; settings: 10 mM GSH, 23 °C, up to 1 h
Protocol: as §1

loss of the pentathiepin ([1]; 0.25 mM GSH in GPx assay buffer, 70 min, 23 °C, RP-HPLC): ~30%
loss of pentathiepin under assay conditions ([1]; 0.25 mM GSH, 20 min GPx assay duration): ca. 10%
GI50 [2]: 8.9 µM
stability in presence of GSH (mass spectrum) [3]: No changes in the mass spectrum
Compound: CCOc1c2c(c3cnc4cc(C)c(C)cc4n13)SSSSS2 [Compound 4]
fraction of damaged plasmid (pBR322 plasmid; with 2 mM GSH): 19%
fraction of damaged plasmid (pBR322 plasmid; without additional thiol): 7%
